According to ChEMBL document CHEMBL6134907, “Synthesis of 5,9- and 5,8-Diaminoalkoxy Substituted Benzophenanthridinone Analogues as Tyrosyl-DNA Phosphodiesterase 1 Inhibitors and Their Radiosensitizing Activity” (J Med Chem, 2025):
The source made the active and inactive calls. The rule behind the calls is not given here.

Columns and labels:
[1] = biological target: T1, Tyrosyl-DNA phosphodiesterase 1 (Homo sapiens, UniProt Q9NUW8); experiment: Inhibition of recombinant TDP1 (unknown origin) assessed as substrate cleavage using 5'-Cy5-GATCTAAAAGACTT-pY-3' DNA substrate at 111 uM measured after 15 mins by gel-based assay
[2] = biological target: T1, Tyrosyl-DNA phosphodiesterase 1; experiment: Inhibition of recombinant TDP1 (unknown origin) assessed as substrate cleavage using 5'-Cy5-GATCTAAAAGACTT-pY-3' DNA substrate measured after 15 mins by gel-based assay
[3] = tested on: HCT-116; experiment: Radiosensitizing activity in human HCT-116 cells assessed as induction of 2 GY ionizing radiation (IR) induced cell killing effect; format: functional, cell-based
[4] = tested on: HCT-116; experiment: Cytotoxicity against human HCT116 cells assessed as cell killing at 0.1 uM relative to control; format: functional
[5] = tested on: HCT-116; experiment: Radiosensitizing activity in human HCT-116 cells assessed as sensitization of 2 GY ionizing radiation (IR) induced cell killing effect at 0.2 uM relative to control; format: functional
[6] = tested on: HCT-116; experiment: Cytotoxicity against human HCT116 cells assessed as cell killing at 0.2 uM relative to control; format: functional
[7] = tested on: HCT-116; experiment: Synergistic cytotoxicity against human HCT116 cells assessed as combination index at 0.5 uM incubated for 48 hrs in presence of 2GY ionizing radiation (IR); format: functional

T1 sequence (Q9NUW8 whole entry): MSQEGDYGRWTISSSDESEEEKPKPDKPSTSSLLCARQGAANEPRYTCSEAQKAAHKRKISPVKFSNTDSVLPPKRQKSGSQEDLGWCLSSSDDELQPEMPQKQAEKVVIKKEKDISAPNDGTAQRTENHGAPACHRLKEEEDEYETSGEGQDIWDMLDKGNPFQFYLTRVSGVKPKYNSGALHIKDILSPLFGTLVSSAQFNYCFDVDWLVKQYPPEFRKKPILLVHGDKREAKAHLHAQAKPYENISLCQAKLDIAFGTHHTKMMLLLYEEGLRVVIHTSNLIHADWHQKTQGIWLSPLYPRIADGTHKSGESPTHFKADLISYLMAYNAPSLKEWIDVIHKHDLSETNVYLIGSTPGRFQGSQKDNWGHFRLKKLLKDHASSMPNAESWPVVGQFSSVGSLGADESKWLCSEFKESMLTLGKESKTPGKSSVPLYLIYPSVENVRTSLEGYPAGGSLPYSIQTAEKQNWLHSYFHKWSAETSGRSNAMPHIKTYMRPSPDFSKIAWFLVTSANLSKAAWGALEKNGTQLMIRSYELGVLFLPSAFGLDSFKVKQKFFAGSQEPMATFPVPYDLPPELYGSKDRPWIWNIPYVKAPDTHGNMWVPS

Structure (SMILES)	inhibition [1]	IC50 [2]	other results
COc1cc2c(=O)n(CCN(C)C)c3c4cc5c(cc4ccc3c2cc1OCCCc1ccccc1)OCO5	inactive		
COc1cc2c(cc1OCCCN1CCOCC1)c(=O)n(CCN(C)C)c1c3cc4c(cc3ccc21)OCO4		17 µM	
COc1cc2c(=O)n(CCN(C)C)c3c4cc5c(cc4ccc3c2cc1OCCCN1CCN(C)CC1)OCO5		7.8 µM	Activity [3]: Active
COc1cc2c(=O)n(CCN(C)C)c3c4cc5c(cc4ccc3c2cc1OCCCN1CCOCC1)OCO5	inactive		
COc1cc2c(=O)n(CCN(C)C)c3c4cc5c(cc4ccc3c2cc1OCCCN(C)C)OCO5		4.7 µM	Activity [3]: Active
COc1cc2c(=O)n(CCN(C)C)c3c4cc5c(cc4ccc3c2cc1OCCc1ccccc1)OCO5	inactive		
CCCCN(CCCC)CCCOc1cc2c(cc1OC)c(=O)n(CCN(C)C)c1c3cc4c(cc3ccc21)OCO4		31 µM	
COc1cc2c(cc1OCCN1CCOCC1)c(=O)n(CCN(C)C)c1c3cc4c(cc3ccc21)OCO4	inactive		
COc1cc2c(cc1OCCCn1ccnc1)c(=O)n(CCN(C)C)c1c3cc4c(cc3ccc21)OCO4	inactive		
COc1cc2c(cc1OCCCN1CCCCC1)c(=O)n(CCN(C)C)c1c3cc4c(cc3ccc21)OCO4		7.4 µM	Activity [3]: Active
COc1cc2c(=O)n(CCN(C)C)c3c4cc5c(cc4ccc3c2cc1OCC(=O)N(C)C)OCO5	inactive		
COc1cc2c(cc1OCCN(C)C)c(=O)n(CCN(C)C)c1c3cc4c(cc3ccc21)OCO4		59 µM	
CCN(CC)C(=O)COc1cc2c(cc1OC)c(=O)n(CCN(C)C)c1c3cc4c(cc3ccc21)OCO4	inactive		
COc1cc2c(=O)n(CCN(C)C)c3c4cc5c(cc4ccc3c2cc1OCCn1ccnc1)OCO5		33 µM	
COc1cc2c(=O)n(CCN(C)C)c3c4cc5c(cc4ccc3c2cc1OCC(=O)N1CCOCC1)OCO5	inactive		
COc1cc2c(=O)n(CCN(C)C)c3c4cc5c(cc4ccc3c2cc1OCCCN1CCCCC1)OCO5		6.9 µM	
COc1cc2c(=O)n(CCN(C)C)c3c4cc5c(cc4ccc3c2cc1OCCN1CCCC1)OCO5	inactive		
COc1cc2c(cc1OCCCN(C)C)c(=O)n(CCN(C)C)c1c3cc4c(cc3ccc21)OCO4		9.3 µM	Activity [3]: Active
COc1cc2c(cc1OCCN1CCN(C)CC1)c(=O)n(CCN(C)C)c1c3cc4c(cc3ccc21)OCO4		46 µM	

Structure (SMILES)	inhibition [1]	IC50 [2]	other results
COc1cc2c(=O)n(CCN(C)C)c3c4cc5c(cc4ccc3c2cc1OCCCN1CCSCC1)OCO5		5.7 µM	Activity [3]: Active; Activity [4]: 19%; Activity [5]: 93%; Activity [6]: 73%; CI [7]: <0.3
CCN(CC)CCOc1cc2c(cc1OC)c(=O)n(CCN(C)C)c1c3cc4c(cc3ccc21)OCO4		43 µM	
CCN(CC)CCCOc1cc2c(=O)n(CCN(C)C)c3c4cc5c(cc4ccc3c2cc1OC)OCO5		6.4 µM	
COc1cc2c(=O)n(CCN(C)C)c3c4cc5c(cc4ccc3c2cc1OCCCN1CCCC1)OCO5		3.6 µM	Activity [3]: Active
COc1cc2c(cc1OCCN1CCCC1)c(=O)n(CCN(C)C)c1c3cc4c(cc3ccc21)OCO4		29 µM	
CCCCN(CCCC)CCOc1cc2c(cc1OC)c(=O)n(CCN(C)C)c1c3cc4c(cc3ccc21)OCO4		23 µM	
COc1cc2c(cc1OCCCN1CCCC1)c(=O)n(CCN(C)C)c1c3cc4c(cc3ccc21)OCO4		5.4 µM	Activity [3]: Active
COc1cc2c(=O)n(CCN(C)C)c3c4cc5c(cc4ccc3c2cc1OCCN1CCSCC1)OCO5	inactive		
COc1cc2c(cc1OCCN1CCCCC1)c(=O)n(CCN(C)C)c1c3cc4c(cc3ccc21)OCO4		16 µM	
COc1cc2c(cc1OCCCN1CCN(C)CC1)c(=O)n(CCN(C)C)c1c3cc4c(cc3ccc21)OCO4		31 µM	
COc1cc2c(=O)n(CCN(C)C)c3c4cc5c(cc4ccc3c2cc1OCCCNC12CC3CC(CC(C3)C1)C2)OCO5		1.6 µM	Activity [3]: Active
CCN(CC)CCCOc1cc2c(cc1OC)c(=O)n(CCN(C)C)c1c3cc4c(cc3ccc21)OCO4		10 µM	Activity [3]: Active
COc1cc2c(cc1OCCn1ccnc1)c(=O)n(CCN(C)C)c1c3cc4c(cc3ccc21)OCO4	inactive		
CCN(CC)CCOc1cc2c(=O)n(CCN(C)C)c3c4cc5c(cc4ccc3c2cc1OC)OCO5		20 µM	
COc1cc2c(=O)n(CCN(C)C)c3c4cc5c(cc4ccc3c2cc1OCCN1CCN(C)CC1)OCO5		6 µM	Activity [3]: Active
COc1cc2c(=O)n(CCN(C)C)c3c4cc5c(cc4ccc3c2cc1OCCN1CCCCC1)OCO5		22 µM	
COc1cc2c(=O)n(CCN(C)C)c3c4cc5c(cc4ccc3c2cc1OCCN(C)C)OCO5		12 µM	
COc1cc2c(=O)n(CCN(C)C)c3c4cc5c(cc4ccc3c2cc1OCCCn1ccnc1)OCO5	inactive		
